# Test results reported in PMC9669179 (Epilepsia, 2022).
# Like-named read-outs stand apart in the source and are kept apart here.
# Legend:
# [1] = Brain pharmacokinetics in mice; conditions: mouse
# [2] = Brain pharmacokinetics in rats; conditions: rats, after CBZ i.p.
# [3] = Plasma pharmacokinetics in rats; conditions: rats
# [4] = Plasma pharmacokinetics in mice
# [5] = Sprague Dawley, rat, in vivo
# [6] = tested on: adult male CF-1 mice; assay: 6 Hz 44 mA seizure test in mice; format: in vivo, mouse
# [7] = tested on: male adult Sprague-Dawley rats; assay: 6 Hz 80 V seizure test in rats; format: in vivo, rat; conditions: for Seizure protection (in words): rats, any time-point
# [8] = in vivo; conditions: CF-1, mouse, ip; for half-life: Plasma t1/2
# [9] = in vivo; conditions: Sprague Dawley, rat, ip, Brain t1/2
# [10] = Sprague Dawley, rat, in vivo; remark: listed apart in the source
# [11] = in vivo; conditions: Sprague Dawley, rat, ip
# [12] = tested on: rats; conditions: rat, minimum motor impairment test, i.p.; cited from earlier work
# [13] = CF-1, mouse, in vivo
# [14] = tested on: mice; conditions: mouse, cited from earlier work
# [15] = CF-1, mouse, in vivo; remark: listed apart in the source
# [16] = tested on: adult Sprague-Dawley rats; assay: Maximal electroshock; format: in vivo, rat; conditions: MES; for Efficacy in rats (number seizure protected /number tested): low dose i.p. (CLB 17, CBZ 3, VPA 165 mg/kg); for Seizure protection (in words): rats
# [17] = tested on: adult male CF-1 mice; conditions: mouse, 6 Hz 44 mA, i.p.; cited from earlier work
# [18] = tested on: adult Sprague-Dawley rats; conditions: rat, MES, i.p.; cited from earlier work
# [19] = in vivo; conditions: CF-1, mouse, ip
# [20] = metabolite after high parent dose i.p.: CLB 17, CBZ 40 mg/kg
# [21] = metabolite after low parent dose i.p.: CLB 7, CBZ 7 mg/kg
# [22] = mouse, metabolite after high parent dose i.p.: CLB 17, CBZ 40 mg/kg
# [23] = mouse, metabolite after low parent dose i.p.: CLB 7, CBZ 7 mg/kg
# [24] = high dose i.p. (CLB 17, VPA 570, LEV 500 mg/kg), time test 0.25 h
# [25] = high dose i.p. (CLB 17, VPA 570, LEV 500 mg/kg), time test 0.5 h
# [26] = high dose i.p. (CLB 17, VPA 570, LEV 500 mg/kg), time test 1 h
# [27] = high dose i.p. (CLB 17, VPA 570, LEV 500 mg/kg), time test 2 h
# [28] = high dose i.p. (CLB 17, VPA 570, LEV 500 mg/kg), time test 4 h
# [29] = high dose i.p. (CLB 17, VPA 570, LEV 500 mg/kg), time test 8 h
# [30] = low dose i.p. (CLB 7, VPA 260, LEV 20 mg/kg), time test 0.25 h
# [31] = low dose i.p. (CLB 7, VPA 260, LEV 20 mg/kg), time test 0.5 h
# [32] = low dose i.p. (CLB 7, VPA 260, LEV 20 mg/kg), time test 1 h
# [33] = low dose i.p. (CLB 7, VPA 260, LEV 20 mg/kg), time test 2 h
# [34] = low dose i.p. (CLB 7, VPA 260, LEV 20 mg/kg), time test 4 h
# [35] = low dose i.p. (CLB 7, VPA 260, LEV 20 mg/kg), time test 8 h
# [36] = mice, low dose i.p. (VPA 260, LEV 20 mg/kg)
structure (smiles),measurement,setting,value
"NC(=O)N1c2ccccc2C2OC2c2ccccc21 (stereo not shown) [CBZE, carbamazepine-10,11-epoxide]",Brain/Plasma AUC ratio of active metabolite,[1]; [20],1.00
same,Brain/Plasma AUC ratio of active metabolite,[1]; [21],1.20
same,Brain half-life of metabolite,[2],approximately 4 hrs
same,CBZE plasma exposures as % of CBZ,[3]; after CBZ i.p.,approximately 70%
same,Plasma half-life of metabolite,[3]; after CBZ i.p.,approximately 4 hrs
same,Plasma half-life of CBZE relative to CBZ,"[4]; mice, high dose CBZ 40 mg/kg i.p., fold longer than CBZ",~ 3 fold
same,Plasma t1/2 of metabolite,[4]; [22],239 min
same,Plasma t1/2 of metabolite,[4]; [23],72 min
"CC[C@@H](C(N)=O)N1CCCC1=O [LEV, levetiracetam]",Brain Dose Prop (AUC),[5],0.56
same,Brain t1/2,[5]; ip,212 min
same,Efficacy in mice (number seizure protected/number tested),[6]; [24],1/4
same,Efficacy in mice (number seizure protected/number tested),[6]; [25],1/4
same,Efficacy in mice (number seizure protected/number tested),[6]; [26],1/4
same,Efficacy in mice (number seizure protected/number tested),[6]; [27],1/4
same,Efficacy in mice (number seizure protected/number tested),[6]; [28],1/4
same,Efficacy in mice (number seizure protected/number tested),[6]; [29],0/4
same,Efficacy in mice (number seizure protected/number tested),[6]; [30],0/4
same,Efficacy in mice (number seizure protected/number tested),[6]; [31],0/4
same,Efficacy in mice (number seizure protected/number tested),[6]; [32],0/4
same,Efficacy in mice (number seizure protected/number tested),[6]; [33],0/4
same,Efficacy in mice (number seizure protected/number tested),[6]; [34],0/4
same,Efficacy in mice (number seizure protected/number tested),[6]; [35],0/4
same,Protection against seizures,"[6]; mice, high-dose LEV (500 mg/kg i.p.), within 4 hrs post-dose",25%
same,Seizure protection (in words),[6]; [36],did not protect
same,Efficacy in rats (number seizure protected /number tested),"[7]; high dose i.p. (LEV 800 mg/kg), time test 0.25 h",0/4
same,Efficacy in rats (number seizure protected /number tested),"[7]; high dose i.p. (LEV 800 mg/kg), time test 0.5 h",0/4
same,Efficacy in rats (number seizure protected /number tested),"[7]; high dose i.p. (LEV 800 mg/kg), time test 1 h",0/4
same,Efficacy in rats (number seizure protected /number tested),"[7]; high dose i.p. (LEV 800 mg/kg), time test 2 h",0/4
same,Efficacy in rats (number seizure protected /number tested),"[7]; high dose i.p. (LEV 800 mg/kg), time test 4 h",0/4
same,Efficacy in rats (number seizure protected /number tested),"[7]; high dose i.p. (LEV 800 mg/kg), time test 8 h",0/4
same,Efficacy in rats (number seizure protected /number tested),"[7]; low dose i.p. (LEV 14 mg/kg), time test 0.25 h",0/4
same,Efficacy in rats (number seizure protected /number tested),"[7]; low dose i.p. (LEV 14 mg/kg), time test 0.5 h",0/4
same,Efficacy in rats (number seizure protected /number tested),"[7]; low dose i.p. (LEV 14 mg/kg), time test 1 h",0/4
same,Efficacy in rats (number seizure protected /number tested),"[7]; low dose i.p. (LEV 14 mg/kg), time test 2 h",0/4
same,Efficacy in rats (number seizure protected /number tested),"[7]; low dose i.p. (LEV 14 mg/kg), time test 4 h",0/4
same,Efficacy in rats (number seizure protected /number tested),"[7]; low dose i.p. (LEV 14 mg/kg), time test 8 h",0/4
same,Seizure protection (in words),[7]; high dose LEV 800 mg/kg i.p.,failed to protect
same,Seizure protection (in words),[7]; low dose LEV 14 mg/kg i.p.,failed to protect
same,Tmax,[8],15 min
same,half-life,[8],103 min
same,half-life,[9],265 min
same,Plasma Dose Prop (AUC),[10],0.55
same,Plasma Dose Prop (Cmax),[10],0.500
same,Plasma t1/2,[10]; ip,191 min
same,half-life,[11]; Plasma t1/2,370 min
same,TD50 - high dose,[12],800 mg/kg
same,Plasma Dose Prop (AUC),[13],1.27
same,Plasma Dose Prop (Cmax),[13],1.00
same,Plasma t1/2,[13]; ip,123 min
same,TD50 - high dose,"[14]; rotarod test, i.p.",500 mg/kg
same,Brain Dose Prop (AUC),[15],1.03
"O=C1CC(=O)N(c2ccccc2)c2cc(Cl)ccc2N1 [NCLB, N-desmethyl clobazam]",Brain/Plasma AUC ratio of active metabolite,[1]; [20],1.64
same,Brain/Plasma AUC ratio of active metabolite,[1]; [21],1.88
same,NCLB concentrations relative to CLB,"[3]; plasma and brain, after CLB i.p., fold less than CLB",~ 20 fold
same,NCLB concentrations relative to CLB,"[4]; mice, after CLB i.p., fold greater than CLB",approximately 10 fold
same,Plasma AUC of NCLB relative to CLB,"[4]; mouse, after CLB i.p., fold greater than CLB",approximately 10 fold
same,Plasma t1/2 of metabolite,[4]; [22],266 min
same,Plasma t1/2 of metabolite,[4]; [23],385 min
"CCCC(CCC)C(=O)O [VPA, sodium valproate]",Brain Dose Prop (AUC),[5],1.84
same,Efficacy in mice (number seizure protected/number tested),[6]; [24],4/4
same,Efficacy in mice (number seizure protected/number tested),[6]; [25],4/4
same,Efficacy in mice (number seizure protected/number tested),[6]; [26],4/4
same,Efficacy in mice (number seizure protected/number tested),[6]; [27],4/4
same,Efficacy in mice (number seizure protected/number tested),[6]; [28],0/4
same,Efficacy in mice (number seizure protected/number tested),[6]; [29],0/4
same,Efficacy in mice (number seizure protected/number tested),[6]; [30],4/4
same,Efficacy in mice (number seizure protected/number tested),[6]; [31],3/4
same,Efficacy in mice (number seizure protected/number tested),[6]; [32],0/4
same,Efficacy in mice (number seizure protected/number tested),[6]; [33],0/4
same,Efficacy in mice (number seizure protected/number tested),[6]; [34],0/4
same,Efficacy in mice (number seizure protected/number tested),[6]; [35],0/4
same,Brain concentration needed for complete seizure protection,"[6]; mice, comparison of the two VPA dose levels",above 100 ng/mg
same,Seizure protection (in words),"[6]; mice, high dose i.p. (VPA 570 mg/kg), sustained only within 2 hrs",maximal antiseizure efficacy
same,Seizure protection (in words),[6]; [36],seizure protection was observed within the first hour
same,Efficacy in rats (number seizure protected /number tested),[16]; time test 0.25 h,3/4
same,Efficacy in rats (number seizure protected /number tested),[16]; time test 0.5 h,3/4
same,Efficacy in rats (number seizure protected /number tested),[16]; time test 1 h,1/4
same,Efficacy in rats (number seizure protected /number tested),[16]; time test 2 h,0/4
same,Efficacy in rats (number seizure protected /number tested),[16]; time test 4 h,0/4
same,Efficacy in rats (number seizure protected /number tested),[16]; time test 8 h,0/4
same,Seizure protection (in words),"[16]; high dose i.p. (CLB 37, VPA 315 mg/kg)",full to moderate seizure protection
same,Seizure protection (in words),"[16]; low dose i.p. (CLB 17, VPA 165 mg/kg)",moderate protection
same,ED50 - low dose,[17],260 mg/kg
same,Tmax,[8],30 min
same,Tmax,[8]; Plasma Tmax,15 min
same,half-life,[8],43.8 min
same,Plasma Dose Prop (Cmax),[10],0.902
same,Time to total drug elimination (>97% drug eliminated),[10]; ip,less than 4.5 hrs
same,Tmax,[11]; Plasma Tmax,15 min
same,ED50 - low dose,[18],165 mg/kg
same,Tmax,[19],30 min
same,Tmax,[19]; Brain Tmax,15 min
same,half-life,[19]; Brain t1/2,55.6 min
same,Plasma Dose Prop (Cmax),[13],0.863
same,TD50 - high dose,"[14]; in vivo, ip",570 mg/kg
same,Brain Dose Prop (AUC),[15],2.17
same,Brain t1/2,[15]; ip,76.8 min
